Experimental data published in publication PMC5218480 (PLoS ONE, 2017).

Test system: MV-4-11 cells
Assay: Gene expression microarray analysis (Affymetrix PrimeView) and GSEA
Type: cell-based, human
Parameters: RFU PODN (11730768_x_at) / Fold change /veh PODN (11730768_x_at) / RFU LINC00158 (11744669_a_at) / Fold change /veh LINC00158 (11744669_a_at) / RFU DUSP10 (11751237_a_at) / Fold change /veh DUSP10 (11751237_a_at) / RFU ID3 (11757404_x_at) / Fold change /veh ID3 (11757404_x_at) / RFU PLEKHG5 (11737974_s_at) / Fold change /veh PLEKHG5 (11737974_s_at) / RFU LRRC4B (11730491_at) / Fold change /veh LRRC4B (11730491_at) / RFU GIMAP4 (11747438_a_at) / Fold change /veh GIMAP4 (11747438_a_at) / RFU KRT8 (11758183_x_at) / Fold change /veh KRT8 (11758183_x_at) / RFU CNN1 (11734310_a_at) / Fold change /veh CNN1 (11734310_a_at) / RFU VPS37D (11726825_at) / Fold change /veh VPS37D (11726825_at) / RFU C10orf10 (11716522_x_at) / Fold change /veh C10orf10 (11716522_x_at) / RFU KIR2DL2 /// KIR2DL4 /// KIR2DL5A /// KIR2DL5B /// KIR2DS1 /// KIR2DS2 /// KIR2DS3 /// KIR2DS4 /// KIR3DL3 /// KIR3DL3 /// KIR3DS1 (11738374_at) / Fold change /veh KIR2DL2 /// KIR2DL4 /// KIR2DL5A /// KIR2DL5B /// KIR2DS1 /// KIR2DS2 /// KIR2DS3 /// KIR2DS4 /// KIR3DL3 /// KIR3DL3 /// KIR3DS1 (11738374_at) / RFU C1QL1 (11718748_at) / Fold change /veh C1QL1 (11718748_at) / RFU TMPRSS4 (11747572_a_at) / Fold change /veh TMPRSS4 (11747572_a_at) / RFU HAMP (11756126_x_at) / Fold change /veh HAMP (11756126_x_at) / RFU RNFT2 (11725882_a_at) / Fold change /veh RNFT2 (11725882_a_at) / RFU NR4A2 (11747474_a_at) / Fold change /veh NR4A2 (11747474_a_at) / RFU ABCC12 (11746883_a_at) / Fold change /veh ABCC12 (11746883_a_at) / RFU TMEM136 (11760407_x_at) / Fold change /veh TMEM136 (11760407_x_at) / RFU CLDN22 /// WWC2 (11732394_at) / Fold change /veh CLDN22 /// WWC2 (11732394_at) / RFU HLA-DPB1 (11760878_x_at) / Fold change /veh HLA-DPB1 (11760878_x_at) / RFU SPINT1 (11716480_a_at) / Fold change /veh SPINT1 (11716480_a_at) / RFU GAP43 (11754022_s_at) / Fold change /veh GAP43 (11754022_s_at) / RFU A4GNT (11735810_at) / Fold change /veh A4GNT (11735810_at) / RFU PRB3 (11715151_x_at) / Fold change /veh PRB3 (11715151_x_at) / RFU TUBB4B (11761932_at) / Fold change /veh TUBB4B (11761932_at) / RFU CAPN14 (11732068_a_at) / Fold change /veh CAPN14 (11732068_a_at) / RFU TMCC2 (11721928_a_at) / Fold change /veh TMCC2 (11721928_a_at) / RFU IRGQ (11745062_a_at) / Fold change /veh IRGQ (11745062_a_at) / RFU FAM174B (11720279_a_at) / Fold change /veh FAM174B (11720279_a_at) / RFU TMPRSS4 (11748680_a_at) / Fold change /veh TMPRSS4 (11748680_a_at) / RFU FAM212B (11763350_a_at) / Fold change /veh FAM212B (11763350_a_at) / RFU PLEKHG5 (11743358_a_at) / Fold change /veh PLEKHG5 (11743358_a_at) / RFU ZSCAN30 (11745921_a_at) / Fold change /veh ZSCAN30 (11745921_a_at) / RFU CMKLR1 (11741424_a_at) / Fold change /veh CMKLR1 (11741424_a_at) / RFU LOC101060620 /// MAPK8IP1 (11723275_at) / Fold change /veh LOC101060620 /// MAPK8IP1 (11723275_at) / RFU SPTSSB (11747773_x_at) / Fold change /veh SPTSSB (11747773_x_at) / RFU PRSS12 (11739890_at) / Fold change /veh PRSS12 (11739890_at) / RFU BIN1 (11741810_x_at) / Fold change /veh BIN1 (11741810_x_at) / RFU WNT11 (11732464_a_at) / Fold change /veh WNT11 (11732464_a_at) / RFU C10orf10 (11716521_a_at) / Fold change /veh C10orf10 (11716521_a_at) / RFU C5orf56 (11738089_at) / Fold change /veh C5orf56 (11738089_at) / RFU CYB561 (11721691_x_at) / Fold change /veh CYB561 (11721691_x_at) / RFU ANKRD19P (11752326_a_at) / Fold change /veh ANKRD19P (11752326_a_at) / RFU OR2T12 /// OR2T33 /// OR2T8 (11738714_s_at) / Fold change /veh OR2T12 /// OR2T33 /// OR2T8 (11738714_s_at) / RFU VCAN (11748164_a_at) / Fold change /veh VCAN (11748164_a_at) / RFU JSRP1 (11732532_at) / Fold change /veh JSRP1 (11732532_at) / RFU KRTAP10-11 (11738290_x_at) / Fold change /veh KRTAP10-11 (11738290_x_at) / RFU MYO3A (11730013_a_at) / Fold change /veh MYO3A (11730013_a_at) / RFU EBF3 (11725865_a_at) / Fold change /veh EBF3 (11725865_a_at) / RFU CAMK2N1 (11719241_x_at) / Fold change /veh CAMK2N1 (11719241_x_at) / RFU C5orf56 (11738088_a_at) / Fold change /veh C5orf56 (11738088_a_at) / RFU OLFML3 (11715873_a_at) / Fold change /veh OLFML3 (11715873_a_at) / RFU LOC100653217 /// NTM (11731650_a_at) / Fold change /veh LOC100653217 /// NTM (11731650_a_at) / RFU MAPK11 (11762145_a_at) / Fold change /veh MAPK11 (11762145_a_at) / RFU FIZ1 (11724087_x_at) / Fold change /veh FIZ1 (11724087_x_at) / RFU OASL (11726364_x_at) / Fold change /veh OASL (11726364_x_at) / RFU SOX15 (11748057_x_at) / Fold change /veh SOX15 (11748057_x_at) / RFU CD79A (11719716_a_at) / Fold change /veh CD79A (11719716_a_at) / RFU HIST1H1D (11736915_at) / Fold change /veh HIST1H1D (11736915_at) / RFU CASKIN2 (11723855_a_at) / Fold change /veh CASKIN2 (11723855_a_at) / RFU LOC730098 (11760151_x_at) / Fold change /veh LOC730098 (11760151_x_at) / RFU OR4N2 (11742367_at) / Fold change /veh OR4N2 (11742367_at) / RFU PRRT2 (11749266_a_at) / Fold change /veh PRRT2 (11749266_a_at) / RFU SNX32 (11753110_a_at) / Fold change /veh SNX32 (11753110_a_at) / RFU CDHR5 (11726645_a_at) / Fold change /veh CDHR5 (11726645_a_at) / RFU RCAN1 (11760418_a_at) / Fold change /veh RCAN1 (11760418_a_at) / RFU FAM167A (11723789_a_at) / Fold change /veh FAM167A (11723789_a_at) / RFU FAM26E (11764081_at) / Fold change /veh FAM26E (11764081_at) / RFU ISYNA1 (11749810_s_at) / Fold change /veh ISYNA1 (11749810_s_at) / RFU ACY1 (11761880_at) / Fold change /veh ACY1 (11761880_at) / RFU 11764098_at / Fold change /veh 11764098_at / RFU SAMD14 (11745864_x_at) / Fold change /veh SAMD14 (11745864_x_at) / RFU NPB (11741838_a_at) / Fold change /veh NPB (11741838_a_at) / RFU TMPRSS6 (11731388_a_at) / Fold change /veh TMPRSS6 (11731388_a_at) / RFU KRTAP10-2 (11738614_at) / Fold change /veh KRTAP10-2 (11738614_at) / RFU ARHGAP8 /// PRR5-ARHGAP8 (11727945_x_at) / Fold change /veh ARHGAP8 /// PRR5-ARHGAP8 (11727945_x_at) / RFU KRTAP5-7 /// NADSYN1 (11734609_at) / Fold change /veh KRTAP5-7 /// NADSYN1 (11734609_at) / RFU RASL12 (11751679_a_at) / Fold change /veh RASL12 (11751679_a_at) / RFU CDKN2B (11736163_a_at) / Fold change /veh CDKN2B (11736163_a_at) / RFU PRF1 (11729649_at) / Fold change /veh PRF1 (11729649_at) / RFU, ZNF638 /// ZNF638-IT1 / Fold change vs veh, ZNF638 /// ZNF638-IT1 / RFU, PANK3 / Fold change vs veh, PANK3 / RFU, SH3YL1 / Fold change vs veh, SH3YL1 / RFU, ZEB2 / Fold change vs veh, ZEB2 / RFU, NRIP1 / Fold change vs veh, NRIP1 / RFU, PTTG1IP / Fold change vs veh, PTTG1IP / RFU, CAPN2 / Fold change vs veh, CAPN2 / RFU, MED14 / Fold change vs veh, MED14 / RFU, SNORA58 / Fold change vs veh, SNORA58 / RFU, C1orf63 / Fold change vs veh, C1orf63 / RFU, LRRFIP1 / Fold change vs veh, LRRFIP1 / RFU, NDUFAF7 / Fold change vs veh, NDUFAF7 / RFU, SLC12A2 / Fold change vs veh, SLC12A2 / RFU, IBTK / Fold change vs veh, IBTK / RFU, ESF1 / Fold change vs veh, ESF1 / Fold change vs veh, TMEM50B / RFU, TAOK1 / Fold change vs veh, TAOK1 / RFU, ACBD3 / Fold change vs veh, ACBD3 / RFU, TMA16 / Fold change vs veh, TMA16 / RFU, RWDD3 / Fold change vs veh, RWDD3 / RFU, BCAT1 / Fold change vs veh, BCAT1 / RFU, EDEM3 / Fold change vs veh, EDEM3 / RFU, TMEM33 / Fold change vs veh, TMEM33 / RFU, WDR75 / Fold change vs veh, WDR75 / RFU, AHCTF1 / Fold change vs veh, AHCTF1 / RFU, TFRC / Fold change vs veh, TFRC / RFU, ZDHHC17 / Fold change vs veh, ZDHHC17 / RFU, NOM1 / Fold change vs veh, NOM1 / RFU, ARL8B / Fold change vs veh, ARL8B / RFU, ZBTB11 / Fold change vs veh, ZBTB11 / RFU, TAMM41 / Fold change vs veh, TAMM41 / RFU, KIAA1704 /// LOC100996395 / Fold change vs veh, KIAA1704 /// LOC100996395 / RFU, ING1 / Fold change vs veh, ING1 / RFU, TRMT61B / Fold change vs veh, TRMT61B / RFU, FUBP3 / Fold change vs veh, FUBP3 / RFU, TP53 / Fold change vs veh, TP53 / RFU, TNKS2 / Fold change vs veh, TNKS2 / RFU, ZFP14 / Fold change vs veh, ZFP14 / RFU, ACTR2 / Fold change vs veh, ACTR2 / RFU, PPP3R1 / Fold change vs veh, PPP3R1 / RFU, PIK3R1 / Fold change vs veh, PIK3R1 / RFU, HNRNPA1 / Fold change vs veh, HNRNPA1 / RFU, RNF170 / Fold change vs veh, RNF170 / RFU, ZNF28 / Fold change vs veh, ZNF28 / RFU, RNGTT / Fold change vs veh, RNGTT / RFU, OGT / Fold change vs veh, OGT / RFU, BRD1 / Fold change vs veh, BRD1 / RFU, MARS / Fold change vs veh, MARS / RFU, ZNF655 / Fold change vs veh, ZNF655 / RFU, FAHD1 / Fold change vs veh, FAHD1 / RFU, BDP1 / Fold change vs veh, BDP1 / RFU, LRRCC1 / Fold change vs veh, LRRCC1 / RFU, ARID1A / Fold change vs veh, ARID1A / RFU, ZNF146 / Fold change vs veh, ZNF146 / RFU, ZNF330 / Fold change vs veh, ZNF330 / RFU, GPN3 / Fold change vs veh, GPN3 / RFU, C9orf123 / Fold change vs veh, C9orf123 / RFU, N4BP2L2 / Fold change vs veh, N4BP2L2 / RFU, ARFIP1 / Fold change vs veh, ARFIP1 / RFU, FAM179B / Fold change vs veh, FAM179B / RFU, BCL10 / Fold change vs veh, BCL10 / RFU, UHRF1BP1L / Fold change vs veh, UHRF1BP1L / RFU, BET1 / Fold change vs veh, BET1 / RFU, CNOT2 / Fold change vs veh, CNOT2 / RFU, ZNF268 / Fold change vs veh, ZNF268 / Fold change vs veh, ZNF507 / RFU, DGCR2 / Fold change vs veh, DGCR2 / RFU, WDSUB1 / Fold change vs veh, WDSUB1 / Fold change vs veh, HSP90B1 /// MIR3652 / RFU, ADSS / Fold change vs veh, ADSS / RFU, GK / Fold change vs veh, GK / RFU, ZNF148 / Fold change vs veh, ZNF148 / RFU, TAF9 / Fold change vs veh, TAF9 / RFU, SLC1A5 / Fold change vs veh, SLC1A5 / RFU, SLMO2 / Fold change vs veh, SLMO2 / RFU, ABCC4 / Fold change vs veh, ABCC4 / RFU, LOC101060439 /// RAP1B / Fold change vs veh, LOC101060439 /// RAP1B / RFU, RFX7 / Fold change vs veh, RFX7 / RFU, GTPBP10 / Fold change vs veh, GTPBP10 / RFU, CNEP1R1 / Fold change vs veh, CNEP1R1 / RFU, BIVM-ERCC5 /// ERCC5 / Fold change vs veh, BIVM-ERCC5 /// ERCC5 / RFU, ILF3 / Fold change vs veh, ILF3 / RFU 11762660_at / Fold change /veh 11762660_at / RFU VCAN (11757783_s_at) / Fold change /veh VCAN (11757783_s_at) / RFU DDX43 (11728927_at) / Fold change /veh DDX43 (11728927_at) / RFU KRT8 (11758188_x_at) / Fold change /veh KRT8 (11758188_x_at) / RFU NKD1 (11759106_at) / Fold change /veh NKD1 (11759106_at) / RFU SRD5A1 (11742802_a_at) / Fold change /veh SRD5A1 (11742802_a_at) / RFU TPSAB1 /// TPSB2 (11721975_s_at) / Fold change /veh TPSAB1 /// TPSB2 (11721975_s_at) / RFU GSTM3 (11746129_a_at) / Fold change /veh GSTM3 (11746129_a_at) / RFU IL23R (11737362_x_at) / Fold change /veh IL23R (11737362_x_at) / RFU TMEM51 (11727254_a_at) / Fold change /veh TMEM51 (11727254_a_at) / RFU PIWIL2 (11732686_x_at) / Fold change /veh PIWIL2 (11732686_x_at) / RFU ORM1 (11744905_x_at) / Fold change /veh ORM1 (11744905_x_at) / RFU CCDC152 (11743942_at) / Fold change /veh CCDC152 (11743942_at) / RFU ECM1 (11717891_a_at) / Fold change /veh ECM1 (11717891_a_at) / RFU IL23R (11748794_a_at) / Fold change /veh IL23R (11748794_a_at) / RFU TNFAIP8L3 (11732012_x_at) / Fold change /veh TNFAIP8L3 (11732012_x_at) / RFU MBOAT4 (11741988_at) / Fold change /veh MBOAT4 (11741988_at) / RFU 11764193_at / Fold change /veh 11764193_at / RFU TMEM53 (11763286_at) / Fold change /veh TMEM53 (11763286_at) / RFU MAGEB2 (11727129_at) / Fold change /veh MAGEB2 (11727129_at) / RFU TMEM200A (11744735_a_at) / Fold change /veh TMEM200A (11744735_a_at) / RFU CCDC152 (11751479_a_at) / Fold change /veh CCDC152 (11751479_a_at) / RFU FAM211A (11726209_a_at) / Fold change /veh FAM211A (11726209_a_at) / RFU RGS16 (11746705_a_at) / Fold change /veh RGS16 (11746705_a_at) / RFU VCAN (11755009_s_at) / Fold change /veh VCAN (11755009_s_at) / RFU RHOB (11743442_s_at) / Fold change /veh RHOB (11743442_s_at) / RFU RGS16 (11720943_a_at) / Fold change /veh RGS16 (11720943_a_at) / RFU RGS16 (11720944_at) / Fold change /veh RGS16 (11720944_at) / RFU, VPS4B / Fold change vs veh, VPS4B / RFU, CREB1 / Fold change vs veh, CREB1 / RFU, DNAJC13 / Fold change vs veh, DNAJC13 / RFU, GNAQ / Fold change vs veh, GNAQ / RFU, CDK5R1 / Fold change vs veh, CDK5R1 / RFU, ZRANB3 / Fold change vs veh, ZRANB3 / RFU, CUL4A / Fold change vs veh, CUL4A / RFU, CCNY / Fold change vs veh, CCNY / RFU, UFL1 / Fold change vs veh, UFL1 / RFU, COG3 / Fold change vs veh, COG3 / RFU, DIAPH2 / Fold change vs veh, DIAPH2 / RFU, SKA2 / Fold change vs veh, SKA2 / RFU, AFF3 / Fold change vs veh, AFF3 / RFU, LMF1 / Fold change vs veh, LMF1 / RFU, IPO11 / Fold change vs veh, IPO11 / RFU, DFFB / Fold change vs veh, DFFB / RFU, FOXP1 / Fold change vs veh, FOXP1 / RFU, CARD8 / Fold change vs veh, CARD8 / RFU, STRN3 / Fold change vs veh, STRN3 / RFU, ADK / Fold change vs veh, ADK / RFU, RASSF2 / Fold change vs veh, RASSF2 / RFU, WIPF1 / Fold change vs veh, WIPF1 / RFU, LARP1B / Fold change vs veh, LARP1B / RFU, RASA1 / Fold change vs veh, RASA1 / RFU, RB1 / Fold change vs veh, RB1 / RFU, PPFIA1 / Fold change vs veh, PPFIA1 / RFU, MAT2A / Fold change vs veh, MAT2A / RFU, CCT5 / Fold change vs veh, CCT5 / RFU, WDR92 / Fold change vs veh, WDR92 / RFU, CUX1 / Fold change vs veh, CUX1 / RFU, TTC7A / Fold change vs veh, TTC7A / RFU, TMEM135 / Fold change vs veh, TMEM135 / RFU, DEPTOR / Fold change vs veh, DEPTOR / RFU, CPM / Fold change vs veh, CPM / RFU, DNAJB6 / Fold change vs veh, DNAJB6 / RFU, CACNA2D3 / Fold change vs veh, CACNA2D3 / RFU, DTX4 / Fold change vs veh, DTX4 / RFU, TFCP2 / Fold change vs veh, TFCP2 / RFU, GMCL1 /// GMCL1P1 / Fold change vs veh, GMCL1 /// GMCL1P1 / RFU, AEBP2 / Fold change vs veh, AEBP2 / RFU, SNHG1 /// SNORD22 /// SNORD25 /// SNORD26 /// SNORD27 /// SNORD28 /// SNORD29 /// SNORD31 / Fold change vs veh, SNHG1 /// SNORD22 /// SNORD25 /// SNORD26 /// SNORD27 /// SNORD28 /// SNORD29 /// SNORD31 / Fold change (Aza/veh), C12orf56 (ProbeSet 11735607_a_at) / Fold change (ACY-1035/veh), C12orf56 (ProbeSet 11735607_a_at) / Fold change (Aza/veh), FGFR1OP (ProbeSet 11751329_s_at) / Fold change (ACY-1035/veh), FGFR1OP (ProbeSet 11751329_s_at) / Fold change (Aza/veh), VPS36 (ProbeSet 11739960_a_at) / Fold change (ACY-1035/veh), VPS36 (ProbeSet 11739960_a_at) / RFU SYPL1 (11715823_x_at) / Fold change /veh SYPL1 (11715823_x_at) / RFU IGFBP7 (11715501_s_at) / Fold change /veh IGFBP7 (11715501_s_at) / RFU REEP3 (11722064_at) / Fold change /veh REEP3 (11722064_at) / RFU IGLL1 (11728026_x_at) / Fold change /veh IGLL1 (11728026_x_at): dose or concentration left out as unconfirmed
Conditions: MV-4-11 cells, 48 hours

Nc1ccc(-c2cccs2)cc1NC(=O)c1ccc2c(c1)cc(C1CC1)n2CCN1CCOCC1 [ACY-1035]
Fold change /veh VCAN (11748164_a_at): 1.07
